# Patent US10301355B2, “Method of using pharmaceutical compositions comprising selective peptide-based agonists of melanocortin 1 receptor” (University of Cincinnati, priority 2012, dated 2019)
# “Also recorded” adds a separate entry of the source.
# Columns and labels:
# Format in all cases: cell-based
# tyrosinase = assay: Stimulation of tyrosinase activity in cultured human melanocytes; settings: for TA compared to 10 nM αMSH: tyrosinase activity, cultured human melanocytes
# Procedure: Peptides were tested on cultured human melanocytes for their capacity for stimulating tyrosinase activity, the rate-limiting enzyme for melanin synthesis. Melanocytes were treated every other day, for a total of 6 days, with increasing concentrations of peptides. Medium containing H^3-tyrosine, the substrate for tyrosinase, was added to melanocytes 24 hours before the end of the 6-day treatment. Tyrosinase activity was measured by determining the amount of ^3H2O generated as […] is catalyzed by tyrosinase for melanin synthesis.
# (§1) Peptides were tested as described in Example 4 above on cultured human melanocytes for their capacity to activate MC1R, as measured by stimulating cAMP formation, and for their capacity for stimulating tyrosinase activity, the rate-limiting enzyme for melanin synthesis. The tested peptides were synthesized according to the formula: Ar(CH2)mX^1—X^2—CO—X^3—X^4—X^5-(Trp)n-NX^6R wherein X^1 and X^2 are absent, X^3 is His, X^5 is Arg, and X^6 is H. X^4 amino acids were in the D-stereoisomer form, unless otherwise noted.
# MC1R [1] = target: T1, MC1R (Homo sapiens, UniProt Q01726); assay: Stimulation of cAMP formation in cultured human melanocytes; set-up: endogenous in cells; host or cells: cultured human melanocytes; settings: for cAMP compared to 10 nM αMSH: cultured human melanocytes
# T1 sequence (Q01726 whole entry): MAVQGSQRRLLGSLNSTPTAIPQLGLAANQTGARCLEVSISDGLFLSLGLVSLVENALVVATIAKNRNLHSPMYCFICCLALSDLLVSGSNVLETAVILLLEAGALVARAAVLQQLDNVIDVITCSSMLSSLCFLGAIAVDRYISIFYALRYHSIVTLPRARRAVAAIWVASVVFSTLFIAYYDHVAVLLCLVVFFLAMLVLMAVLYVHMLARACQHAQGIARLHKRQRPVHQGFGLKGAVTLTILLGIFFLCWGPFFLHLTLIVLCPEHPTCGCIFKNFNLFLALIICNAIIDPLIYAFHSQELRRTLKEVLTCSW
# Procedure: Peptides were tested on cultured human melanocytes for their capacity to activate MC1R, as measured by stimulating cAMP formation. After 45 minutes of treatment with different concentrations of peptides, cAMP levels were measured using a I^125-labeled radioimmunoassay kit.
# as §1
# hMC4R = target: T2, hMC4R (Homo sapiens, UniProt P32245); assay: cAMP stimulation in heterologous cells expressing hMC4R
# T2 construct: expressed in transfected cells
# T2 sequence (P32245 whole entry): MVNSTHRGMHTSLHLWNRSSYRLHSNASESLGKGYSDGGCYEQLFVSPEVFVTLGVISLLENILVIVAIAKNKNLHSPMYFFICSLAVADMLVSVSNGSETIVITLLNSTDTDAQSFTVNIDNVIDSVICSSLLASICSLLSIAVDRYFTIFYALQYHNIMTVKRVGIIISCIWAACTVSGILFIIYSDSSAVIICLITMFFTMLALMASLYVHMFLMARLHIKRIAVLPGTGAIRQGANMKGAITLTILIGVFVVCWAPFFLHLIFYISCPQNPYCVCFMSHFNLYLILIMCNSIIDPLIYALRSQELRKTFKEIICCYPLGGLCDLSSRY
# Procedure: (§2) Receptor selectivity of peptide agonists for hMC1R was determined by stimulation of cAMP in heterologous cells expressing different human melanocortin receptors (MC1R, MC3R, MC4R, and MC5R).
# hMC3R = target: T3, hMC3R (Homo sapiens, UniProt P41968); assay: cAMP stimulation in heterologous cells expressing hMC3R
# T3 construct: expressed in transfected cells
# T3 sequence (P41968 whole entry): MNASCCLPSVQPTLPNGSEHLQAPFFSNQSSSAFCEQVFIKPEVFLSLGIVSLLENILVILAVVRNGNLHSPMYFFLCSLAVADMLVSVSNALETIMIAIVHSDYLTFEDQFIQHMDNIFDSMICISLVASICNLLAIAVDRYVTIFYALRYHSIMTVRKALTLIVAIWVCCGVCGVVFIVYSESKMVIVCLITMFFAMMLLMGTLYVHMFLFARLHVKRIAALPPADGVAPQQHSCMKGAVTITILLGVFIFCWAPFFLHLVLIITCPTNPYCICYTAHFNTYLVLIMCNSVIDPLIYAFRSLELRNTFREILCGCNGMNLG
# Procedure: as §2
# MC1R [2] = target: T1, MC1R; assay: cAMP stimulation in heterologous cells expressing hMC1R; set-up: expressed in transfected cells; settings: for HMC1R % MAX. ACTIVITY: cAMP, heterologous cells
# Procedure: as §2
# hMC5R = target: T4, hMC5R (Homo sapiens, UniProt P33032); assay: cAMP stimulation in heterologous cells expressing hMC5R
# T4 construct: expressed in transfected cells
# T4 sequence (P33032 whole entry): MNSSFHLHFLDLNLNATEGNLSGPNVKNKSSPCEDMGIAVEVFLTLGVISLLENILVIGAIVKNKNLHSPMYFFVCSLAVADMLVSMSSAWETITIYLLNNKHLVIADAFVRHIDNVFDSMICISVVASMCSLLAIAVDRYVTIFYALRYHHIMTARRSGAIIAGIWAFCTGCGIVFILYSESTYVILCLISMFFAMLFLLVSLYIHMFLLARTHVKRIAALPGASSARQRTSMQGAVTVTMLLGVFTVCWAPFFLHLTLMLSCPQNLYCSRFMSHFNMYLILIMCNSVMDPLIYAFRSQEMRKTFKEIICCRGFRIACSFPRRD
# Procedure: as §2
# [3] = tested on: UV-irradiated human melanocytes; assay: Repair of UV-induced 8-oxodG
# Procedure: To investigate the effects of peptides on repair of UV-induced DNA damage, levels of 8-oxodG, a major form of oxidative DNA damage, were measured in UV-irradiated human melanocytes with or without peptide treatment. […] Fluorescence intensity, which correlates with the amount of DNA damage, was quantified using ImagJ software.
# [4] = tested on: UV-irradiated human melanocytes; assay: Repair of UV-induced cyclobutane pyrimidine dimers (CPD); settings: for CPD removal compared with 10 nM α-MSH: peptide at 1 nM, 48 hours post UV
# Procedure: To investigate the effects of peptides on the repair of UV-induced DNA damage, levels of cyclobutane pyrimidine dimers (CPD), the major form of DNA photoproducts, were measured in UV-irradiated human melanocytes with or without peptide treatment. Melanocytes were pretreated with the peptides for 4 days prior to, and for 48 hours post UV exposure, harvested, immunostained by a specific antibody for CPD, and analyzed by flow cytometry.
# [5] = human melanocytes, 6 days treatment
# [6] = human melanocytes, 45 minutes of treatment
molecule,measurement,setting,value
Ph(CH2)3CO-His-(D-Phe)-Arg-Trp-NHEt [LK-487],"effect on tyrosinase activity, comparison",tyrosinase; [5],equipotent to LK-467
same,cAMP compared to 10 nM αMSH,MC1R [1],>*
same,"potency in stimulating cAMP formation, comparison",MC1R [1]; [6],equipotent to LK-467
Ph(CH2)3CO-His-(D-4-IPhe)-Arg-Trp-NH2 [475P],cAMP compared to 10 nM αMSH,MC1R [1],<; >
Ph(CH2)3CO-His-(D-4-NO2Phe)-Arg-Trp-NH2 [471P],cAMP compared to 10 nM αMSH,MC1R [1],=
Ph(CH2)3CO-His-(D-2-Nal)-Arg-Trp-NH2 [468P],cAMP compared to 10 nM αMSH,MC1R [1],≤
4-FC6H4CH2CO-His-(D-4-Bip)-Arg-NHEt [497P],cAMP compared to 10 nM αMSH,MC1R [1],NR (NR = No Response/inactive at 10 nM)
"N=C(N)NCCC[C@H](NC(=O)[C@@H](Cc1ccc(-c2ccccc2)cc1)NC(=O)[C@H](Cc1c[nH]cn1)NC(=O)CCCc1ccccc1)C(N)=O [LK-511, Ph(CH2)3CO-His-(D-4-Bip)-Arg-NH2]",binding of MC4R,hMC4R,do not bind
same,HMC4R EC50,"hMC4R; cAMP, heterologous cells",INACTIVE
same,binding of MC3R,hMC3R,do not bind
same,HMC3R EC50,"hMC3R; cAMP, heterologous cells",INACTIVE
same,concentration at which significant stimulation of tyrosinase activity begins,tyrosinase; [5],1 nM
same,TA compared to 10 nM αMSH,tyrosinase,<
same,cAMP compared to 10 nM αMSH,MC1R [1],<
same,"potency in stimulating cAMP formation, comparison",MC1R [1]; [6],about ten times less potent than a-MSH; also recorded: about ten times less potent than α-MSH
same,potency in activation of MC1R compared with MT-II,MC1R [2],about as potent as MT-II
same,HMC1R % MAX. ACTIVITY,MC1R [2],88%
same,binding of MC5R,hMC5R,do not bind
same,HMC5R EC50,"hMC5R; cAMP, heterologous cells",INACTIVE
Ph(CH2)3CO-His-(D-2-Thi)-Arg-Trp-NH2 [476P],cAMP compared to 10 nM αMSH,MC1R [1],>
4-FC6H4CH2CO-His-(D-4-tBuPhe)-Arg-NHEt [498P],cAMP compared to 10 nM αMSH,MC1R [1],NR** (NR = No Response/inactive at 10 nM)
Ph(CH2)3CO-His-(D-1-Nal)-Arg-NHMe [512P],TA compared to 10 nM αMSH,tyrosinase,NR (NR = No Response/inactive at 10 nM)
Ph(CH2)3CO-His-(D-2-Nal)-Arg-NHMe [517P],TA compared to 10 nM αMSH,tyrosinase,<<<
Ph(CH2)3CO-His-(D-4-FPhe)-Arg-Trp-NH2 [470P],cAMP compared to 10 nM αMSH,MC1R [1],>
"N=C(N)NCCC[C@H](NC(=O)[C@@H](Cc1cccc2ccccc12)NC(=O)[C@H](Cc1c[nH]cn1)NC(=O)CCCc1ccccc1)C(=O)N[C@@H](Cc1c[nH]c2ccccc12)C(N)=O [LK-467, Ph(CH2)3CO-His-(D-1-Nal)-Arg-Trp-NH2]","reduction of 8-oxodG levels, comparison with LK-184",[3]; 24 hours after UV exposure,as effective as LK-184
same,potency at hMC4R compared with LK-184,hMC4R,about ten times less potent
same,HMC4R % MAX. ACTIVITY,"hMC4R; cAMP, heterologous cells",39%
same,HMC3R % MAX. ACTIVITY,"hMC3R; cAMP, heterologous cells",7%
same,"effect on tyrosinase activity, comparison",tyrosinase; [5],comparable effects in tyrosinase activity
same,potency relative to a-MSH in activating MC1R and stimulating melanogenesis,tyrosinase; [5],at least 100 times
same,cAMP compared to 10 nM αMSH,MC1R [1],>
same,"potency in stimulating cAMP formation, comparison",MC1R [1]; [6],more potent than LK-184
same,"reduction of CPD levels, comparison with LK-184",[4]; 48 hours after UV exposure,as effective as LK-184
same,CPD removal compared with 10 nM α-MSH,[4],same effect at 1 nM on CPD removal as 10 nM a-MSH; also recorded: same effect at 1 nM on CPD removal as 10 nM α-MSH
same,HMC1R % MAX. ACTIVITY,MC1R [2],111%
same,HMC5R % MAX. ACTIVITY,"hMC5R; cAMP, heterologous cells",34%
4-BrC6H4CH2CO-His-(D-4-FPhe)-Arg-Trp-NH2 [208P],cAMP compared to 10 nM αMSH,MC1R [1],>
Ph(CH2)3CO-His-(D-1-Nal)-Arg-NH2 [510P],TA compared to 10 nM αMSH,tyrosinase,NR (NR = No Response/inactive at 10 nM)
"N=C(N)NCCC[C@H](NC(=O)[C@@H](Cc1ccccc1)NC(=O)[C@H](Cc1c[nH]cn1)NC(=O)CCCc1ccccc1)C(=O)N[C@@H](Cc1c[nH]c2ccccc12)C(N)=O [LK-184, Ph(CH2)3CO-His-(D-Phe)-Arg-Trp-NH2]",HMC4R % MAX. ACTIVITY,"hMC4R; cAMP, heterologous cells",102%
same,HMC3R % MAX. ACTIVITY,"hMC3R; cAMP, heterologous cells",85%
same,"effect on tyrosinase activity, comparison",tyrosinase; [5],comparable effects in tyrosinase activity
same,concentration giving maximal levels of cAMP,MC1R [1]; [6],10 nM
same,CPD removal compared with 10 nM α-MSH,[4],same effect at 1 nM on CPD removal as 10 nM a-MSH; also recorded: same effect at 1 nM on CPD removal as 10 nM α-MSH
same,HMC1R % MAX. ACTIVITY,MC1R [2],128%
same,HMC5R % MAX. ACTIVITY,"hMC5R; cAMP, heterologous cells",39%
Ph(CH2)3CO-His-(D-2-Nal)-Arg-NH2 [515P],TA compared to 10 nM αMSH,tyrosinase,<<
Ph(CH2)3CO-His-(D-1-Nal)-Arg-NHEt [491P],cAMP compared to 10 nM αMSH,MC1R [1],NR (NR = No Response/inactive at 10 nM)
Ph(CH2)3CO-His-(D-4-ClPhe)-Arg-Trp-NH2 [473P],cAMP compared to 10 nM αMSH,MC1R [1],=; >
Ph(CH2)3CO-His-(D-4-tBuPhe)-Arg-NHMe [516P],TA compared to 10 nM αMSH,tyrosinase,<<
Ph(CH2)3CO-His-(D-4-tBuPhe)-Arg-NHEt [494P],cAMP compared to 10 nM αMSH,MC1R [1],<<
4-FC6H4CH2CO-His-(D-1-Nal)-Arg-NHEt [495P],cAMP compared to 10 nM αMSH,MC1R [1],NR (NR = No Response/inactive at 10 nM)
4-FC6H4CH2CO-His-(D-4-FPhe)-Arg-Trp-NH2 [205P],TA compared to 10 nM αMSH,tyrosinase,≥
same,cAMP compared to 10 nM αMSH,MC1R [1],≤
Ph(CH2)3CO-His-(D-3-NO2Phe)-Arg-Trp-NH2 [472P],cAMP compared to 10 nM αMSH,MC1R [1],<
4-FC6H4CH2CO-His-(D-2-Nal)-Arg-NHEt [496P],cAMP compared to 10 nM αMSH,MC1R [1],NR (NR = No Response/inactive at 10 nM)
Ph(CH2)3CO-His-(D-4-BrPhe)-Arg-Trp-NH2 [474P],cAMP compared to 10 nM αMSH,MC1R [1],=; <; >
4-IC6H4CH2CO-His-(D-Phe)-Arg-Trp-NH2 [488P],cAMP compared to 10 nM αMSH,MC1R [1],>>
Ph(CH2)3CO-His-(D-4-Bip)-Arg-NHEt [493P],cAMP compared to 10 nM αMSH,MC1R [1],<<
"CC(C)(C)c1ccc(C[C@@H](NC(=O)[C@H](Cc2c[nH]cn2)NC(=O)CCCc2ccccc2)C(=O)N[C@@H](CCCNC(=N)N)C(N)=O)cc1 [LK-514, Ph(CH2)3CO-His-(D-4-tBuPhe)-Arg-NH2]",reduction of 8-oxodG levels compared with 1 nM α-MSH,"[3]; peptide at 100 nM, 24 hours post UV",greater effect than 1 nM α-MSH
same,binding of MC4R,hMC4R,do not bind
same,binding of MC3R,hMC3R,do not bind
same,concentration at which significant stimulation of tyrosinase activity begins,tyrosinase; [5],1 nM
same,"effect on tyrosinase activity, comparison",tyrosinase; [5],the most effective
same,TA compared to 10 nM αMSH,tyrosinase,<
same,cAMP compared to 10 nM αMSH,MC1R [1],<
same,"potency in stimulating cAMP formation, comparison",MC1R [1]; [6],about ten times less potent than a-MSH; also recorded: more potent than LK-511 or 513; also recorded: about ten times less potent than α-MSH; also recorded: more potent than LK-511 or LK-513
same,potency in activation of MC1R compared with MT-II,MC1R [2],about as potent as MT-II
same,HMC1R % MAX. ACTIVITY,MC1R [2],94%
same,binding of MC5R,hMC5R,do not bind
"melanotan II [MT-II, reference compound]",HMC1R % MAX. ACTIVITY,MC1R [2],103%
same,HMC5R % MAX. ACTIVITY,"hMC5R; cAMP, heterologous cells",100%
Ph(CH2)3CO-His-(D-2-Nal)-Arg-NHEt [492P],cAMP compared to 10 nM αMSH,MC1R [1],NR (NR = No Response/inactive at 10 nM)
